The values that follow come from patent publication US20070270462A1, “8-hydroxyquinoline compounds for treating a polyglutamine (polyQ)-expansion disease” (priority 2005, published 2007).

Data set [1] has as its system Htt exon1-Q25-egfp. The data set can be described thus: Fluorescence microscopy of transfected PC12 cells expressing Htt exon1-Q25-egfp. It is filed as cell-based. As to conditions: CQ 4 μM, 48 hours post-transfection. From the text:
(§1) PolyQ-htt-GFP fusion constructs, in which the polyglutamine region is encoded by CAA and CAG-containing tandem repeats ([…]) [SEQ ID NO: 1], human polyglutaminen, were obtained from the Hereditary Disease Foundation, Santa Monica, Calif., USA. PC12 and HEK293 cells were maintained in MEM supplemented with 10% v/v FBS, switched to Opti-MEM without serum for 6 hrs during transfection using Lipofectamine 2000 (Invitrogen, Carlsbad, Calif., USA), and returned to serum-containing medium thereafter (up to 48 hours). […] Control cultures received equivalent amounts of DMSO-containing vehicle (<0.1% w/v DMSO, final concentration).
(§2) Concordant with this reduction in mutant protein expression, cell survival was improved by CQ in a dose dependent fashion with a half maximal effect at 1-2 μM (FIG. 2b). Cell death began to increase at 8 μM, likely due to dose-dependent toxic effects of CQ.

Data set [2] deals with Alzheimer's disease. The settings on record: phase II clinical trial; cited from earlier work.
The subject of data set [3] is Htt exon1-Q103-egfp. The data set can be described thus: Fluorescence microscopy of transiently transfected PC12 cells expressing Htt exon1-Q103-egfp. In kind it is cell-based. As to conditions: CQ 4 μM, 48 hours post-transfection.
Source text: as §1, §2

Data set [4] has as its system egfp-alone. The data set can be described thus: Fluorescence microscopy of transfected PC12 cells expressing egfp alone. It is filed as cell-based. As to conditions: CQ 4 μM, 48 hours post-transfection.
Source text: as §1, §2

Data set [5] relates to YAC72 mice. In kind it is in vivo. From the text: Lower dosages need to be investigated to determine if such doses improve the effect. […] Moreover, since the drug is given as a single daily dose in a water suspension, it is possible that the window of time in which the blood levels are therapeutic may be small, perhaps only a few hours a day. To address these issues, it is proposed to use the R6/2 short term model for a dose-response study and then examine the effects of treatment on the longer term, milder YAC72 model. YAC72 animals carry a portion of a yeast artificial chromosome (YAC) bearing a full-length human htt gene (including the promoter) that is modified with a 72 CAG repeat expansion in exon 1. […]
CQ is delivered blended into food pellets with vitamin B12 supplementation. […] In addition, it is determined what is the average rate of consumption and fluctuations in consumption rate through the course of the day. These parameters are measured periodically in test subjects as well, to allow adjustment of dosing for body weight and food intake. […] Animals are evaluated for a variety of parameters including clasping, rotarod performance, body weight, and survival, and animals are sacrificed at 12 weeks for western and immunohistochemical analysis of huntingtin fragment accumulation and striatal atrophy. […]

The test system of data set [6] is R6/2 mice. The data set can be described thus: Fasting blood glucose in R6/2 mice. In kind it is in vivo, mouse. The settings on record: 11-week old R6/2 mice after 8 weeks of CQ treatment, mean ± s.e.m. The protocol: A colony of transgenic mice strain R6/2 that is heterozygous for htt exon1 (containing 145 CAG repeats) was maintained, with founders originating and available from The Jackson Laboratory (Bar Harbor, Me., USA). Male transgenic R6/2 mice were bred with background strain (B6CBAFI/J) females. Genotyping was done according to Hockly et al, Brain Res Bull 61, 469-479, 2003. CQ in water was orally administered to mice at 30 mg/kg/day starting at 3 weeks of age and continued until the mice were deceased or sacrificed for tissues. Littermate R6/2 mice were gavaged with water vehicle alone. At the end of CQ treatment mice were anesthetized and transcardially perfused with PBS followed by 4% v/v paraformaldehyde. Blood glucose levels were determined after at least 8 hrs of fasting in 11-week old mice (n=6 for wild-type, n=4 for vehicle-treated R6/2, n=6 for CQ-treated R6/2 littermates) using a 2300 STAT Plus glucose analyzer (YSI, Yellowsonte, Ohio, USA). Fasting blood insulin levels in animals fasted for 8 hrs were measured using an Ultra Sensitive Rat Insulin ELISA Kit (Crystal Chem, Inc., Downers Grove, Ill., USA) according to manufacturer's instructions.
Consistent with the blood glucose level was a reciprocal change in blood insulin levels.
Data are mean+s.e.m. n≧4 for each treatment group. *P<0.0004 for glucose, **P=0.0065 for insulin levels comparing vehicle and CQ-treated groups.

For the compound `Oc1c(I)cc(Cl)c2cccnc12` [CQ, 5-chloro-7-iodo-8-hydroxy-quinoline], the “fluorescent product of Htt exon1-Q25-egfp” value in data set [1] is listed as “unaffected”. Also, in data set [2], the CQ toxicity entry is on record as “no significant CQ toxicity” and the “effects on Alzheimer's disease” value is listed as “early positive effects”. In data set [3], the “fluorescent product of Htt exon1-Q103-egfp” value is “less fluorescent product”. Also, in data set [4], the “fluorescent product of egfp-alone” value was “unaffected”. In data set [5] (YAC72 mice, chronic CQ with B12 supplementation), the “behavioral and pathologic features” value is “significantly mitigate the behavioral and pathologic features”. Also, the “tolerability of chronic CQ administration” value in data set [5] (mouse, in vivo) is “well tolerated”. Also, in data set [6], the “fasting blood glucose level” value was determined as 4.1 ± 0.3 mM.
